We go through 30 molecules from US20050197350A1, “Novel quinoline, tetrahydroquinazoline, and pyrimidine derivatives and methods of treatment related to the use thereof” (TAISHO PHARMACEUTICAL CO., LTD., priority 2003, published 2005).

The structures appear in SMILES notation. pIC50: −log10 of the molar value. Where a name gives a salt, the structure may show the parent alone. A value given as a limit tells only on which side of the number the result lay.

The first experiment addresses MCH receptor (Homo sapiens, UniProt Q99705). Briefly: High throughput functional screening FLIPR/FDSS6000 (intracellular Ca2+ evoked by MCH). Conditions: FLIPR/FDSS, antagonist activity vs 50 nM MCH; class by percent of control at 10^−7 M or IC50; read-out: class. The format is cell-based. The method, boiled down: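 For antagonist testing, compound-treated cells (30 min, 37 °C) were stimulated with 50 nM MCH and intracellular Ca2+ followed by Fluo4 fluorescence on FLIPR/FDSS6000. Receptor was a constitutively active, non-endogenous MCH receptor; dye loading 4 μM Fluo4-AM, 1 h, 37 °C.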
On to `Cc1cnc(N[C@H]2CC[C@@H](NC(=O)Nc3ccc(Cl)cc3Cl)CC2)nc1N(C)C` [Example 3338, N-(2,4-dichlorophenyl)-N′-(cis-4-{[4-(dimethylamino)-5-methylpyrimidin-2-yl]amino}cyclohexyl)urea], for which the pIC50 was 6.70 to 7.30. In the case of `Cc1cnc(N[C@H]2CC[C@@H](NC(=O)Nc3cc(C(F)(F)F)cc(C(F)(F)F)c3)CC2)nc1N(C)C` [Example 3334, N-[3,5-bis(trifluoromethyl)phenyl]-N′-(cis-4-{[4-(dimethylamino)-5-methylpyrimidin-2-yl]amino}cyclohexyl)urea], the pIC50 was 6.70 to 7.30.

With `CNc1nc(N[C@H]2CC[C@@H](NC(=O)COc3cc(C(F)(F)F)n(C)n3)CC2)ncc1C` [Example 3364, N-(cis-4-{[5-methyl-4-(methylamino)pyrimidin-2-yl]amino}-cyclohexyl)-2-{[1-methyl-5-(trifluoromethyl)-1H-pyrazol-3-yl]oxy}acetamide], the pIC50 was under 6.70.

For the molecule `Cc1cnc(N[C@H]2CC[C@@H](NC(=O)Nc3c(Cl)cc(Cl)cc3Cl)CC2)nc1N(C)C` [Example 3345, N-(cis-4-{[4-(dimethylamino)-5-methylpyrimidin-2-yl]amino}cyclohexyl)-N′-(2,4,6-trichlorophenyl)urea], the pIC50 is over 7.30. As for `Cc1cnc(N[C@H]2CC[C@@H](NC(=O)Nc3ccc(F)c(F)c3)CC2)nc1N(C)C` [Example 3327, N-(3,4-difluorophenyl)-N′-(cis-4-{[4-(dimethylamino)-5-methylpyrimidin-2-yl]amino}cyclohexyl)urea], the pIC50 is 6.70 to 7.30. For the molecule `Cc1cc(N[C@H]2CC[C@@H](C(=O)N[C@H](C)c3ccc(Cl)cc3)CC2)nc2ccccc12` [Example 3305, cis-N-[(1R)-1-(4-chlorophenyl)ethyl]-4-[(4-methylquinolin-2-yl)amino]cyclohexanecarboxamide], the pIC50 was 6.70 to 7.30. Regarding `Cc1cc(N(C)C)nc(N[C@H]2CC[C@@H](NC(=O)c3cccnc3S(=O)(=O)c3ccccc3C(F)(F)F)CC2)n1` [Example 3381, N-(cis-4-{[4-(dimethylamino)-6-methylpyrimidin-2-yl]amino}cyclohexyl)-2-{[2-(trifluoromethyl)phenyl]-sulfonyl}nicotinamide], the pIC50 is under 6.70. As for `Cc1cnc(NC2CCC(C(=O)N[C@H](C)c3cccc(C(F)(F)F)c3)CC2)nc1N(C)C` (stereo partly drawn) [Example 3299, 4-{[4-(dimethylamino)-5-methylpyrimidin-2-yl]amino}-N-{(1R)-1-[3-(trifluoromethyl)phenyl]ethyl}cyclohexanecarboxamide], the pIC50 is over 7.30.

On to `Cc1cnc(N[C@H]2CC[C@@H](NC(=O)c3cccnc3S(=O)(=O)c3ccc(C(F)(F)F)cc3)CC2)nc1N(C)C` [Example 3291, N-(cis-4-{[4-(dimethylamino)-5-methylpyrimidin-2-yl]amino}cyclohexyl)-2-{[4-(trifluoromethyl)phenyl]sulfonyl}-nicotinamide], for which the pIC50 is 6.70 to 7.30. As to `Cc1cnc(N[C@H]2CC[C@@H](NC(=O)[C@@H]3C[C@H]3c3ccc(Cl)c(Cl)c3)CC2)nc1N(C)C` (relative stereo) [Example 3319, trans-2-(3,4-dichlorophenyl)-N-(cis-4-{[4-(dimethylamino)-5-methylpyrimidin-2-yl]amino}cyclohexyl)-cyclopropanecarboxamide], the pIC50 is over 7.30.

On to `Cc1cc(N[C@H]2CC[C@@H](C(=O)N[C@H](C)c3ccccc3C(F)(F)F)CC2)nc2ccccc12` [Example 3313, cis-4-[(4-methylquinolin-2-yl)amino]-N-{(1R)-1-[2-(trifluoromethyl)phenyl]ethyl}cyclohexanecarboxamide], for which the pIC50 was 6.70 to 7.30.

With `COc1ccc(S(=O)(=O)c2ncccc2C(=O)N[C@H]2CC[C@@H](Nc3nc(C)cc(N(C)C)n3)CC2)cc1` [Example 3380, N-(cis-4-{[4-(dimethylamino)-6-methylpyrimidin-2-yl]amino}cyclohexyl)-2-[(4-methoxyphenyl)sulfonyl]-nicotinamide], the pIC50 was under 6.70.

The experiment is the same for the next values; noted with them: FLIPR/FDSS, antagonist activity vs 50 nM MCH; class by percent of control at 10^−7 M or IC50; table after the classification; read-out: class.
Regarding `CN(C)c1ccnc(N[C@H]2CC[C@@H](NC(=O)c3cncc(Br)c3)CC2)n1` [Example 3211, 5-Bromo-N-[cis-4-(4-dimethylamino-pyrimidin-2-ylamino)-cyclohexyl]-nicotinamide hydrochloride], the pIC50 was over 7.30. The same measure, in the same setting: in the case of `Cc1cc(N(C)C)nc(N[C@H]2CC[C@@H](NC(=O)c3ccc(F)c(Cl)c3)CC2)n1` [Example 3230, 3-Chloro-N-[cis-4-(4-dimethylamino-6-methyl-pyrimidin-2-ylamino)-cyclohexyl]-4-fluoro-benzamide hydrochloride] it was over 7.30; in that of `Cc1cc(N[C@H]2CC[C@@H](CNC(=O)Nc3cccc(Cl)c3Cl)CC2)nc2ccccc12` [Example 3106, 1-(2,3-Dichloro-phenyl)-3-[cis-4-(4-methyl-quinolin-2-ylamino)-cyclohexylmethyl]-urea hydrochloride], over 7.30; in that of `CNc1nc(N[C@H]2CC[C@@H](CNCc3ccc(Br)cc3OC(F)(F)F)CC2)nc2c1CCCC2` [Example 11, N^2-{cis-4-[(4-Bromo-2-trifluoromethoxy-beny)amino-methyl]-cyclobexyl}-N^4-methyl-5,6,7,8-tetrahydro-quinazoline-2,4-diamine dihydrochloride], over 7.30.

As for `Cc1cc(N[C@H]2CC[C@@H](NC(=O)c3ccc(F)c(Cl)c3)CC2)nc2ccccc12` [Example 3239, 3-Chloro-4-fluoro-N-[cis-4-(4-methyl-quinolin-2-ylamino)-cyclohexyl]-benzamide methanesulfonic acid], the pIC50 is over 7.30. As to `CN(C)c1nc(N[C@H]2CC[C@@H](NC(=O)c3ccc(F)c(F)c3)CC2)nc2c1CCCC2` [Example 3192, N-[cis-4-(4-dimethylamino-5,6,7,8-tetrahydro-quinazolin-2-ylamino)-cyclohexyl]-3,4-difluoro-benzamide hydrochloride], the pIC50 is over 7.30. As for `O=C(N[C@H]1CC[C@@H](NCc2ccc3ccccc3n2)CC1)c1ccc(F)c(F)c1` [Example 3156, 3,4-Difluoro-N-{cis-4-[(quinolin-2-ylmethyl)-amino]-cyclohexyl}-benzamide dihydrochloride], the pIC50 is under 6.70. Same read-out and setting: the figure for `Cc1cc(N[C@H]2CC[C@@H](NC(=O)c3cccc(F)c3)CC2)nc2ccccc12` [Example 3170, 3-Fluoro-N-[cis-4-(4-methyl-quinolin-2-ylamino)-cyclohexyl]-benzamide hydrochloride] is over 7.30; for `CNc1nc(N[C@H]2CC[C@@H](C(N)Cc3ccccc3OC(F)(F)F)CC2)nc2c1CCCC2` (relative stereo) [Example 12, N^4-Methyl-N^2-{cis-4-[(2-trifluoromethoxy-benzyl)-amino-methyl]-cyclohexyl}-5,6,7,8-tetrahydro-quinazoline-2,4-diamine dihydrochloride] it is 6.70 to 7.30; for `Cc1cnc(N[C@H]2CC[C@@H](NC(=O)c3cccnc3Oc3ccccc3)CC2)nc1N(C)C` [Example 3120, N-[cis-4-(4-Dimethylamino-5-methyl-pyrimidin-2-ylamino)-cyclohexyl]-2-phenoxy-nicotinamide hydrochloride] it is over 7.30. In the case of `O=C(COc1ccc(F)c(Cl)c1)N[C@H]1CC[C@@H](Nc2ccc3ccccc3n2)CC1` [Example 3064, 2-(3-Chloro-4-fluoro-phenoxy)-N-[cis-4-(quinolin-2-ylamino)-cyclohexyl]-acetamide hydrochloride], the pIC50 is over 7.30. Consider `Cc1cc(N[C@H]2CC[C@@H](NC(=O)c3ccc(F)cc3F)CC2)nc2ccccc12` [Example 3163, 2,4-Difluoro-N-[cis-4-(4-methyl-quinolin-2-ylamino)-cyclohexyl]-benzamide hydrochloride], for which the pIC50 was over 7.30. In the case of `Cc1cc(N[C@H]2CC[C@@H](NC(=O)c3ccc4nonc4c3)CC2)nc2ccccc12` [Example 3085, Benzo[2,1,3]oxadiazole-5-carboxylic acid-[cis-4-(4-methyl-quinolin-2-ylamino)-cyclohexyl]-amide hydrochloride], the pIC50 is over 7.30.

On to `Cc1cc(N[C@H]2CC[C@@H](NC(=O)c3cccnc3Oc3ccc(F)c(F)c3)CC2)nc2ccccc12` [Example 3091, 2-(3,4-Difluoro-phenoxy)-N-[cis-4-(4-methyl-quinolin-2-ylamino)-cyclohexyl]-nicotinamide hydrochloride], for which the pIC50 was over 7.30. Take `Cc1cc(N(C)C)nc(N[C@H]2CC[C@@H](NC(=O)c3ccc(F)c(F)c3)CC2)n1` [Example 3127, N-[cis-4-(4-dimethylamino-C-methyl-pyrimidin-2-ylamino)-cyclohexyl]-3,4-difluoro-benzamide hydrochloride]: the pIC50 is over 7.30.

On to `CN(C)c1cc(N[C@H]2CC[C@@H](CNCc3ccc(Br)cc3OC(F)(F)F)CC2)nc2ccccc12` [Example 7, N^2-{cis-4-[(4-Bromo-2-trifluoromethoxy-benzyl)amino-methyl]-cyclohexyl}-N^4,N^4-dimethyl-quinoline-2,4-diamine dihydrochloride], for which the pIC50 is over 7.30. Turning to `Cc1cnc(N[C@H]2CC[C@@H](CNC(=O)Nc3cccc(Cl)c3Cl)CC2)nc1N(C)C` [Example 3125, 1-(2,3-Dichloro-phenyl)-3-[cis-4-(4-dimethylamino-5-methyl-pyrimidin-2-ylamino)-cyclohexylmethyl]-urea hydrochloride], the pIC50 is over 7.30.

On to `Cc1cc(N[C@H]2CC[C@@H](NC(=O)c3cccnc3Oc3ccccc3)CC2)nc2ccccc12` [Example 3070, N-[cis-4-(4-Methylquinolin-2-ylamino)-cyclohexyl]-2-phenoxy-nicotinamide hydrochloride], for which the pIC50 is over 7.30.

Staying with this experiment, now noted: FLIPR/FDSS, antagonist activity vs 50 nM MCH; representative examples; read-out: IC50.
On to `CN(C)c1cc(N[C@H]2CC[C@@H](CNCc3ccc(Br)cc3OC(F)(F)F)CC2)nc2ccccc12` [Example 7, N^2-{cis-4-[(4-Bromo-2-trifluoromethoxy-benzyl)amino-methyl]-cyclohexyl}-N^4,N^4-dimethyl-quinoline-2,4-diamine dihydrochloride], for which the pIC50 was 7.96.
